# Results from US20240366618A1, “CGRP Antagonists for Treating Trigeminal Neuralgia” (Pfizer Ireland Pharmaceuticals, priority 2021, published 2024).
# Entries after “also recorded” stand apart in the source; their conditions may differ.
# B1: erenumab: an injected anti-CGRP monoclonal antibody (antibody, chains of the INN, looked up, V domains shown)
# VH: QVQLVESGGGVVQPGRSLRLSCAASGFTFSSFGMHWVRQAPGKGLEWVAVISFDGSIKYSVDSVKGRFTISRDNSKNTLFLQMNSLRAEDTAVYYCARDRLNYYDSSGYYHYKYYGMAVWGQGTTVTVSS
# VL: QSVLTQPPSVSAAPGQKVTISCSGSSSNIGNNYVSWYQQLPGTAPKLLIYDNNKRPSGIPDRFSGSKSGTSTTLGITGLQTGDEADYYCGTWDSRLSAVVFGGGTKLTVL
# Columns and labels:
# [1] = tested on: classic trigeminal neuralgia; conditions: patients with classic trigeminal neuralgia; cited from earlier work
# migraine [2] = assay: Three double-blind, placebo-controlled BHV-3000 migraine studies; format: in vivo, human; conditions: 75 mg dose
# [3] = tested on: refractory atypical trigeminal neuralgia; assay: Case study: oral rimegepant in one patient with refractory atypical trigeminal neuralgia; format: in vivo, human; parameters: key to Barrow Neurological Institute (BNI) pain intensity score: II: defined as no pain on medication; conditions: for adverse effects / tolerability / treatment efficacy in words: treatment period of six months
# From the text: In this study, refractory atypical trigeminal neuralgia was successfully treated using rimegepant, a novel oral calcitonin gene-related peptide (CGRP) antagonist. The patient experienced a decrease in pain from seven to nine out of 10 to 0 out of 10 within one day of therapy initiation. […] Thus, this case illustrates the promise of CGRP antagonist therapy as a novel treatment for trigeminal neuralgia, including atypical trigeminal neuralgia.
# A person with a 5-year history of TN presented with episodic sharp, stabbing and constant burning pain along the V2 nerve distribution. Their pain was triggered by sensation on their upper right teeth, including wind, mastication, and extreme-temperature fluids. Their self-reported pain score ranged from seven to nine out of 10, and their Barrow Neurological Institute (BNI) pain intensity score was rated IV out of V, defined as inadequate pain control with medication. At presentation, their pain regimen consisted of 300 mg oxcarbazepine per day, up to eight 15 mg tablets of oxycodone per day, and 10 mcg per hour transdermal buprenorphine patch. On neurological exam, sensation was intact to light touch bilaterally except along the right nasolabial fold, and grimace was symmetric. The patient experienced impairment in ability to perform daily activities, such as eating, working, and speaking. Other associated symptoms included headache, fatigue, and significant weight loss.
# Prior to presentation, the patient unsuccessfully tried several medications for pain control, including oxcarbazepine, meperidine, carisoprodol, propranolol, pregabalin, sumatriptan, and ergot. They also failed medical cannabinoids, oxygen therapy, trigger point injections, and sphenopalatine nerve blockades. They underwent four surgical procedures at outside institutions, including Gamma Knife radiosurgery (37 months prior to presentation), right balloon rhizotomy (31 months prior to presentation), radiofrequency ablation (22 months prior to presentation), and a V2-3 radiofrequency rhizotomy (14 months prior to presentation).
# Given their sharp/stabbing pain, we offered them a microvascular decompression (MVD).
# After multiple trials of different medications for six years after their MVD, the patient was started on 75 mg of rimegepant per day. Within 12 hours of their first dose, their self-reported pain score improved to 0 out of 10. […] They rarely had mild (2 out of 10) pain, which was controlled with 1 mg buprenorphine. Their BNI pain intensity score was reduced to II, defined as no pain on medication.
# migraine [4] = conditions: cited from earlier work
# [5] = Ongoing long-term safety study of rimegepant; format: in vivo, human; conditions: 75 mg dose; preliminary data
# trigeminal neuralgia = conditions: cited from earlier work
# [6] = 75 mg per day, listed as Rimegepant
# [7] = acute migraine treatment trial, fast-dissolve orally disintegrating tablet (ODT) formulation
molecule,measurement,setting,value
NC(=O)N1c2ccccc2C=Cc2ccccc21 [carbamazepine],response rates with initial therapy,[1],approximately 70%
NC(=O)N1c2ccccc2CC(=O)c2ccccc21 [oxcarbazepine],response rates with initial therapy,[1],approximately 70%
"N[C@@H]1c2cccnc2[C@H](OC(=O)N2CCC(n3c(=O)[nH]c4ncccc43)CC2)CC[C@H]1c1cccc(F)c1F [rimegepant, (5S,6S,9R)-5-amino-6-(2,3-difluorophenyl)-6,7,8,9-tetrahydro-5H-cyclohepta[b]pyridine-9-yl-4-(2-oxo-2,3-dihydro-1H-imidazo[4,5-b]pyridine-1-yl)piperidine-1-carboxylate]",efficacy for the treatment of migraine in words,migraine [2],effective
same,time after first dose until self-reported pain score improved to 0 out of 10,[3]; 75 mg of rimegepant per day,≤ 12 h
same,self-reported pain score,"[3]; 75 mg of rimegepant per day, within 12 hours of first dose, before treatment seven to nine out of 10",0 out of 10
same,Barrow Neurological Institute (BNI) pain intensity score,"[3]; on 75 mg rimegepant per day, before treatment IV out of V",II
same,time after therapy initiation until pain decreased to 0 out of 10,[3]; oral rimegepant,one
same,mood and cognition,"[3]; patient-reported, six-month treatment period",drastic improvement in mood and cognition
same,rare mild pain during treatment,"[3]; six-month treatment period, 75 mg per day, controlled with 1 mg buprenorphine",2 out of 10
same,adverse effects / tolerability,[3]; 75 mg per day,no significant adverse effects
same,treatment efficacy in words,[3]; 75 mg per day,continues to be efficacious; also recorded: mostly had no pain
same,adverse effects / tolerability,[3]; [6],well tolerated
same,treatment efficacy in words,[3]; [6],maintains efficacy over a period of six months
same,adverse effects / tolerability,"[3]; 75 mg per day, listed as rigemepant",lack of adverse effects
same,pain,"[3]; within one day of therapy initiation, before treatment seven to nine out of 10",0 out of 10
same,time postdose at which statistically significant benefit for pain relief was demonstrated,migraine [4]; [7],60 min
same,time postdose at which statistically significant benefit on achieving pain freedom was demonstrated,migraine [4]; [7],90 min
same,safety profile in words,migraine [4]; migraine trials,favorable safety profile
same,efficacy in migraine in words,"migraine [4]; orally administered, preventive and acute treatment",proven efficacy in the preventive and acute treatment of migraine
same,tolerability in words,[5],well tolerated
B1,patients reporting constipation and/or injection site reaction,trigeminal neuralgia; in vivo,three
same,side effects in words,trigeminal neuralgia; in vivo,minimal
same,patients with significant decrease in trigeminal neuralgia pain,trigeminal neuralgia; injected erenumab,nine
same,patients reporting complete pain resolution,trigeminal neuralgia; of 10 patients treated with erenumab,five
